Experimental data from patent US8617546B2, “Anticancer agent comprising anti-PD-1 antibody or anti-PD-L1 antibody” (Seoul National University Industry Foundation, priority 2008, dated 2013).

What was measured:
iNKT cells [1] = test: Expression of PD-1 and PD ligands on iNKT cells after α-GC administration (FACS); type: in vivo, C57BL/6 mice; conditions: FIG. 1
Protocol: Splenocytes were isolated from C57BL/6 mice administered with 2 μg of α-GC at different time points (0 hr, 6 hrs, 72 hrs, 7 days, one month and two months) after the administration. The cells were stained with a PE-conjugated anti-PD-1 monoclonal antibody, a PE-conjugated anti-PD-L1 monoclonal antibody, a PE-conjugated anti-PD-L2 monoclonal antibody and a PE-conjugated isotype control monoclonal antibody, respectively. iNKT cells were gated on B220^− TCR-β^intα-GC/CD1d:Ig^+ population. PD-1, PD-L1 and PD-L2 expression (open histograms) was analyzed by FACS. Shaded histograms indicate staining with isotype control niAbs.

anergic iNKT cells [2] = test: Recovery of responsiveness of anergic iNKT cells in vitro (cytokine ELISA of supernatants); type: cell-based, C57BL/6 mice; conditions: pre-treatment with 2 μg α-GC 7 days before restimulation, in presence of control IgG; FIG. 5
Protocol: The α-GC-induced unresponsiveness of iNKT cells was detected as early as 3 days after primary stimulation and observed to persist until 7~30 days after α-GC stimulation. Thus, C57BL/6 mice were injected with 2 μg of α-GC to induce iNKT cell anergy. One week and one month later, splenocytes were isolated from the mice and 5×10^5 cells were incubated for 3 days with 100 ng/ml of α-GC in the presence of 50 μg/ml of the control rat IgG, the anti-PD-1 mAb, the anti-PD-L1 mAb, or the anti-PD-L2 mAb. Also, splenocytes isolated from the mice were incubated for 3 days with 10 ng/ml of α-GC without mAb, and these were represented by ‘activation’. The supernatants were then assayed for IFN-γ and IL-4 levels by ELISA [*:p<0.05 and **:p<0.01 (vs. control rat IgG)].

iNKT cells [3] = test: iNKT cell activation in vivo: serum IFN-γ and IL-4 by ELISA after α-GC treatment; parameters: species or system C57BL/6 mice; conditions: 2 μg α-GC; FIG. 3
Protocol: C57BL/6 mice was injected with 200 μg of the control rat IgG, the anti-PD-1 mAb, the anti-PD-L1 mAb or the anti-PD-L2 mAb 24 hrs before treatment with 2 μg of α-GC. Sera were obtained at 0, 2, 6, 12, 24, 48 and 72 hrs after the treatment, followed by ELISA analysis for IFN-γ and IL-4 levels.

[4] = tested on: B16F10 melanoma metastasis; test: B16F10 melanoma metastasis model with anergy-induced iNKT cells: number of pulmonary nodules; type: in vivo, C57BL/6 mice; conditions: anergy induced with control IgG and α-GC; α-GC treatment during tumor inoculation; FIG. 10
Protocol: Anergy-induced iNKT cells were assayed for the recovery of anti-tumor activity by the antibodies of the present invention. In this regard, naive C57BL/6 mice were intraperitoneally injected with 200 μg of the control rat IgG, the anti-PD-1 antibody or the anti-PD-L1 antibody 24 hrs after which injection with 2 μg of α-GC induced iNKT cell anergy. 7 days later, 5×10^5 B16F10 tumor cells were i.v. injected. On Day 0, 4 and 8, the mice were treated with 500 ng of α-GC to induce anti-tumor activity of iNKT cells. 14 days later, the lungs were excised and the nodules formed by cancer metastasis were counted (A). The isolated lungs were observed under an optical microscope (B).

anergic iNKT cells [5] = test: Recovery of responsiveness of anergic iNKT cells in vivo: serum cytokines after secondary α-GC injection; parameters: species or system C57BL/6 mice; conditions: 2 μg α-GC, re-injection 14 days later; FIG. 6
Protocol: 200 μg of the control rat IgG, the anti-PD-1 antibody or the anti-PD-L1 antibody was intraperitoneally injected into C57BL/6 mice 24 hrs before treatment with 2 μg of α-GC. 14 days later, 2 μg of α-GC was injected again, followed by the preparation of sera 2 and 12 hrs after the re-injection for ELISA assay of IL-4 and IFN-γ levels, respectively.

`CCCCCCCCCCCCCCCCCCCCCCCCCC(=O)N[C@@H](CO[C@H]1O[C@H](CO)[C@H](O)[C@H](O)[C@H]1O)[C@H](O)[C@H](O)CCCCCCCCCCCCCC` [α-GC, α-galactosylceramide] was tested, and the “PD-L1 expression on iNKT cells” value (iNKT cells [1]; after 2 μg α-GC) was “temporarily increased”, the “persistence of the upregulated PD-1 level on iNKT cells” value (iNKT cells [1]; after 2 μg α-GC) was “for two months” and the “time for PD-L1 expression to decline toward naive state levels” value (iNKT cells [1]; after 2 μg α-GC) was no more than 72 h. The “PD-L2 expression on iNKT cells” value (iNKT cells [1]; regardless of activation status) was “not found”, the “PD-1 expression on iNKT cells” value (iNKT cells [1]; splenocytes after 2 μg α-GC, 0 hr to two months) was “upregulated” and the “production of IFN-γ on restimulation after α-GC pre-treatment” value (anergic iNKT cells [2]) was “greatly decrease”. The “production of IL-4 on restimulation after α-GC pre-treatment” value (anergic iNKT cells [2]) was “greatly decrease”, the “time of peak blood IFN-γ level after α-GC treatment” value (iNKT cells [3]) was no more than 12 h and the “time of peak blood IL-4 level after α-GC treatment” value (iNKT cells [3]) was no more than 2 h. The “tumor growth / metastasis with anergic iNKT cells” value [4] was “did not suppress tumor growth”, the “serum IFN-γ upon secondary α-GC injection in mice pretreated with α-GC” value (anergic iNKT cells [5]) was “significantly low” and the “serum IL-4 upon secondary α-GC injection in mice pretreated with α-GC” value (anergic iNKT cells [5]) was “significantly low”.
